Several values for one entry are separate records, joined by “and”; a condition that tells them apart may be missing. Identical values can stand only once.
Test: solvent given as SMILES
[1] = in c1cc(-c2cccc(-n3c4ccccc4c4ccccc43)c2)cc(-n2c3ccccc3c3ccccc32)c1

For CC(C)(C)c1ccc2c(c1)c1cc(C(C)(C)C)ccc1n2-c1ccc(C#Cc2cccc(C#Cc3ccc(-n4c5ccc(C(C)(C)C)cc5c5cc(C(C)(C)C)ccc54)cc3)c2)cc1, the fluorescence lifetime (in CC#N) was 5.51 ns, the fluorescence lifetime (in CCCCC) was 1.38 ns and the fluorescence lifetime (in CO) was 4.88 ns. It also gave a fluorescence lifetime (in Cc1ccccc1) of 1.65 ns, a fluorescence lifetime (in ClC(Cl)Cl) of 2.51 ns and a fluorescence lifetime (in ClCCl) of 3.62 ns.

Work on Cc1ccccc1C1=C2C=c3c(oc4ccc(F)cc34)=[N+]2[B-](F)(F)n2c1cc1c3cc(F)ccc3oc12 yielded a fluorescence lifetime (in C1CCCCC1) of 4.02 ns, a fluorescence lifetime (in CCOC(C)=O) of 4.22 ns and a fluorescence lifetime (in CO) of 4.3 ns.

Work on CCN(CC)c1ccc2cc(-c3ccc(-c4ccc5ccc6c(-c7ccc(-c8cc9ccc(N(CC)CC)cc9oc8=O)cc7)ccc7ccc4c5c76)cc3)c(=O)oc2c1 yielded a fluorescence lifetime (in ClC(Cl)Cl) of 8.46 ns.

Compound COc1ccc(C(=Cc2ccc(/C=C(\C#N)c3ccc([N+](=O)[O-])cc3)cc2)c2ccc(OC)cc2)cc1 has a fluorescence lifetime (in C1CCOC1) of 1.4 ns.

In the case of CCCCCCN1C(=O)c2cccc3c(-c4cc5ccccc5s4)ccc(c23)C1=O, the fluorescence lifetime (in ClC(Cl)Cl) is reported as 0.86 ns.

FC(F)(F)c1cc2n(n1)[B-]1(c3ccccc3Oc3ccccc31)[n+]1ccc3ccccc3c1-2 showed a fluorescence lifetime (in C1CCCCC1) of 1.79 ns, a fluorescence lifetime (in Cc1ccccc1) of 1.85 ns and a fluorescence lifetime (in ClCCl) of 2.45 ns.

Compound COc1cc2cc(/C=C/c3ccc(/C=C(\C#N)C(=O)O)cc3)c(=O)oc2cc1OC has a fluorescence lifetime (in CC#N) of 2.06 ns.

COc1ccc(-c2nc(C(C)=O)c(C)o2)cc1 showed a fluorescence lifetime (in CC#N) of 3.92 ns, a fluorescence lifetime (in CCO) of 2.31 ns and a fluorescence lifetime (in CCOC(C)=O) of 4.53 ns. The fluorescence lifetime (in CCOCC) was 1.79 ns and the fluorescence lifetime (in ClCCl) was 1.7 ns.

Cc1cc(C)c(C2=C(c3c(C)sc(-c4ccc(-c5nc(-c6ccccc6)c(-c6ccccc6)[nH]5)cc4)c3C)C(F)(F)C(F)(F)C2(F)F)s1 gave a fluorescence lifetime (in C1CCOC1) of 0.42 ns.

For Cc1cc(C)c(B(c2ccc(C#Cc3cc4ccc5cc(C#Cc6ccc(B(c7c(C)cc(C)cc7C)c7c(C)cc(C)cc7C)cc6)cc6ccc(c3)c4c56)cc2)c2c(C)cc(C)cc2C)c(C)c1, the fluorescence lifetime (in Cc1ccccc1) was 58 ns.

In the case of CC1=[N+]2C(=C(c3ccc(Br)cc3)c3ccc(C)n3[B-]2(F)F)C=C1c1cc2n(c1)[B-](F)(F)[N+]1=CC=CC1=C2c1c(C)cc(C)cc1C, the fluorescence lifetime (in C1CCCCC1) is reported as 3.01 ns and the fluorescence lifetime (in CCOC(C)=O) is reported as 0.938 ns.

For N#Cc1c(-n2c3ccccc3c3ccccc32)c(-n2c3ccc(-c4ccccc4)cc3c3cc(-c4ccccc4)ccc32)c(-n2c3ccccc3c3ccccc32)c(-n2c3ccc(-c4ccccc4)cc3c3cc(-c4ccccc4)ccc32)c1-n1c2ccccc2c2ccccc21, the fluorescence lifetime (in Cc1ccccc1) was 5.8 ns and the fluorescence lifetime [1] was 4.5 ns.

In the case of COc1ccc(C#Cc2ccc(-c3nn[nH]n3)cc2)cc1OC, the fluorescence lifetime (in C1CCOC1) is reported as 0.94 ns, the fluorescence lifetime (in C1COCCO1) is reported as 0.81 ns and the fluorescence lifetime (in CC#N) is reported as 0.46 ns. For the same compound, the fluorescence lifetime (in CCOC(C)=O) was 0.86 ns, the fluorescence lifetime (in CS(C)=O) was 0.66 ns and the fluorescence lifetime (in Cc1ccccc1) was 0.73 ns.

CC1(C)CC[N+]2=c3c(cc4c(c31)Oc1cc3c(cc1C=4c1ccccc1C(=O)O)C(c1ccccc1C(=O)O)=c1cc4c5c(c1O3)C(C)(C)CC[N+]=5CCC4)CCC2 gave a fluorescence lifetime (in ClC(Cl)Cl) of 2.41 ns.

c1ccc2c(-n3c(-c4ccc(-c5ccc(-c6nc7c8ccccc8c8ccccc8c7n6-c6cccc7ccccc67)c6ccccc56)c5ccccc45)nc4c5ccccc5c5ccccc5c43)cccc2c1 gave a fluorescence lifetime (in ClCCl) of 1.87 ns.

COc1ccc2c3c([nH]c2c1)C(C)=NCC3 showed a fluorescence lifetime (in CC#N) of 5.29 ns, a fluorescence lifetime (in CS(C)=O) of 2.91 ns and a fluorescence lifetime (in O) of 4.65 ns.

Compound O=C(O)CCCOc1cc2ccc3cccc4ccc(c1)c2c34 has a fluorescence lifetime (in CO) of 59 ns.

With Nc1ccc2ccc(O)cc2c1 the fluorescence lifetime (in O) was 7.69 ns.

For c1ccc([B-]23NC(C4CCCCC4)=Nc4cccc([n+]42)N=C(C2CCCCC2)N3)cc1, the fluorescence lifetime (in ClCCl) was 4.6 ns.

With CCN(CC)c1ccc2c(C)cc(=O)oc2c1 the fluorescence lifetime (in C1CCCCC1) was 2.8 ns, the fluorescence lifetime (in CC#N) was 3.4 ns and the fluorescence lifetime (in CCCCCCCCO) was 3.69 ns. It also gave a fluorescence lifetime (in CCCCCCO) of 3.68 ns, a fluorescence lifetime (in CCCCO) of 3.55 ns and a fluorescence lifetime (in CCCO) of 3.48 ns. For the same compound, the fluorescence lifetime (in CCO) was 3.15 ns and 2.04 ns and 3.1 ns, the fluorescence lifetime (in CCOC(C)=O) was 3.1 ns and the fluorescence lifetime (in CO) was 1.94 ns. It also gave a fluorescence lifetime (in O) of 0.36 ns and a fluorescence lifetime (in OCC(O)CO) of 3.8 ns.

With O=Cc1ccc(C#CC(C#Cc2ccc(C=O)o2)=Cc2ccc(C=C(C#Cc3ccc(C=O)o3)C#Cc3ccc(C=O)o3)s2)o1 the fluorescence lifetime (in ClC(Cl)Cl) was 0.4 ns.

For CC1(C)c2ccccc2N(c2ccc(-c3nc(C#N)c(C#N)nc3-c3ccc(N4c5ccccc5C(C)(C)c5ccccc54)cc3)cc2)c2ccccc21, the fluorescence lifetime [1] was 30 ns.

Cc1cc(C)c(B(c2ccccc2N(c2ccccc2)c2ccccc2)c2c(C)cc(C)cc2C)c(C)c1 showed a fluorescence lifetime (in Cc1ccccc1) of 27 ns.

N#Cc1ccc2c(c1)CCc1nc(-c3ccc([N+](=O)[O-])cc3)c3c(c1-2)CCc1cc(C#N)ccc1-3 showed a fluorescence lifetime (in C1CCOC1) of 1.36 ns, a fluorescence lifetime (in CC#N) of 1.11 ns and a fluorescence lifetime (in CCCCCC) of 0.64 ns. For the same compound, the fluorescence lifetime (in CCOC(C)=O) was 1.11 ns, the fluorescence lifetime (in CO) was 0.84 ns and the fluorescence lifetime (in CS(C)=O) was 1.24 ns. It also gave a fluorescence lifetime (in Cc1ccccc1) of 0.88 ns and a fluorescence lifetime (in ClCCl) of 1.46 ns.

For c1ccc2c(-c3ccc4sc5ccccc5c4c3)c3ccccc3cc2c1, the fluorescence lifetime (in C1CCCCC1) was 4.1 ns, the fluorescence lifetime (in CC#N) was 4.5 ns and the fluorescence lifetime (in ClCCl) was 5 ns.

— the Deep4Chem optical property database
